According to patent US9073911B2, “Pyrazole derivatives” (HOFFMANN-LA ROCHE INC., priority 2011, dated 2015):
Where a name gives a salt, the structure may show the parent alone.

How the values were obtained:
mouse TAAR1 = mouse TAAR1 (Mus musculus (Mouse), UniProt Q923Y8); experiment: Radioligand binding assay on mouse TAAR1; conditions: membranes of HEK-293 cells stably expressing mouse TAAR1; first value of cell mouse/rat
Experimental: (§1) Construction of TAAR Expression Plasmids and Stably Transfected Cell Lines
(§2) For the construction of expression plasmids the coding sequences of human, rat and mouse TAAR 1 were amplified from genomic DNA essentially as described by Lindemann et al.. The Expand High Fidelity PCR System (Roche Diagnostics) was used with 1.5 mM Mg^2+ and purified PCR products were cloned into pCR2.1-TOPO cloning vector (Invitrogen) following the instructions of the manufacturer. PCR products were subcloned into the pIRESneo2 vector (BD Clontech, Palo Alto, Calif.), and expression vectors were sequence verified before introduction in cell lines.
(§3) HEK293 cells (ATCC # CRL-1573) were cultured essentially as described by Lindemann et al. (2005). For the generation of stably transfected cell lines HEK293 cells were transfected with the pIRESneo2 expression plasmids containing the TAAR coding sequences (described above) with Lipofectamine 2000 (Invitrogen) according to the instructions of the manufacturer, and 24 hrs post transfection the culture medium was supplemented with 1 mg/ml G418 (Sigma, Buchs, Switzerland). After a culture period of about 10 d clones were isolated, expanded and tested for responsiveness to trace amines (all compounds purchased from Sigma) with the cAMP Biotrak Enzyme immunoassay (EIA) System (Amersham) following the non-acetylation EIA procedure provided by the manufacturer.
Radioligand Binding Assay on Mouse TAAR1
(§4) Membrane Preparation and Radioligand Binding.
HEK-293 cells stably expressing mouse TAAR1 were maintained at 37° C. and 5% CO2 in DMEM high glucose medium, containing fetal calf serum (10%, heat inactivated for 30 min at 56° C.), penicillin/streptomycin (1%), and 375 μg/ml geneticin (Gibco). Cells were released from culture flasks using trypsin/EDTA, harvested, washed twice with ice-cold PBS (without Ca^2+ and Mg^2+), pelleted at 1,000 rpm for 5 min at 4° C., frozen and stored at −80° C. Frozen pellets were suspended in 20 ml HEPES-NaOH (20 mM, pH 7.4) containing 10 mM EDTA and homogenized with a Polytron (PT 6000, Kinematica) at 14,000 rpm for 20 s. The homogenate was centrifuged at 48,000×g for 30 min at 4° C. Subsequently, the supernatant was removed and discarded, and the pellet resuspended in 20 ml HEPES-NaOH (20 mM, pH 7.4) containing 0.1 mM EDTA using the Polytron (20 s at 14,000 rpm). This procedure was repeated and the final pellet resuspended in HEPES-NaOH containing 0.1 mM EDTA and homogenized using the Polytron. Typically, aliquots of 2 ml membrane portions were stored at −80° C. With each new membrane batch the dissociation constant (Kd) was determined via a saturation curve. The TAAR1 radioligand ^3[H]—(S)-4-[(ethyl-phenyl-amino)-methyl]-4,5-dihydro-oxazol-2-ylamine (described in WO 2008/098857) was used at a concentration equal to the calculated Kd value, that was usually around 0.7 nM, resulting in the binding of approximately 0.5% of the radioligand and a specific binding representing approximately 70% of the total binding. Nonspecific binding was defined as the amount of ^3[H]—(S)-4-[(ethyl-phenyl-amino)-methyl]-4,5-dihydro-oxazol-2-ylamine bound in the presence of 10 μM unlabeled ligand. All compounds were tested at a broad range of concentrations ([…]) in duplicates. […] The 96 deep well plates were incubated for 1 hr at 4° C. Incubations were terminated by rapid filtration through Unifilter-96 plates (Packard Instrument Company) and glass filters GF/C (Perkin Elmer) presoaked for 1 hr in polyethylenimine (0.3%) and washed 3 times with 1 ml of cold binding buffer. After addition of 45 μl of Microscint 40 (PerkinElmer) the Unifilter-96 plate was sealed and after 1 hr the radioactivity counted using a TopCount Microplate Scintillation Counter (Packard Instrument Company).

rat TAAR1 = rat TAAR1 (Rattus norvegicus (Rat), UniProt Q923Y9); experiment: Radioligand binding assay on rat TAAR1; conditions: membranes of HEK-293 cells stably expressing rat TAAR1; second value of cell mouse/rat
Chain of rat TAAR1 (Q923Y9 whole entry): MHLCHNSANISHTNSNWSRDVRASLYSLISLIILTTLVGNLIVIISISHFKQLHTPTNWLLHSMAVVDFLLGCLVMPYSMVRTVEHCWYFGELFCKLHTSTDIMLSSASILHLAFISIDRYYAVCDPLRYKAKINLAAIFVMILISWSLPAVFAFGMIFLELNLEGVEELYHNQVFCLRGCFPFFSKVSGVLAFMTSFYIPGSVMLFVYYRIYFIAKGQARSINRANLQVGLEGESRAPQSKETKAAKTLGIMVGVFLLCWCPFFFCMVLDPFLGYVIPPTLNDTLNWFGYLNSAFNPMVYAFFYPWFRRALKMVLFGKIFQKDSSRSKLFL
Experimental: as §1, §2, §3
Radioligand Binding Assay on rat TAAR1
as §4
HEK-293 cells stably expressing rat TAAR1 were maintained at 37° C. and 5% CO2 in DMEM high glucose medium, containing fetal calf serum (10%, heat inactivated for 30 min at 56° C.), penicillin/streptomycin (1%), and 375 μg/ml geneticin (Gibco). Cells were released from culture flasks using trypsin/EDTA, harvested, washed twice with ice-cold PBS (without Ca^2+ and Mg^2+), pelleted at 1,000 rpm for 5 min at 4° C., frozen and stored at −80° C. Frozen pellets were suspended in 20 ml HEPES-NaOH (20 mM, pH 7.4) containing 10 mM EDTA and homogenized with a Polytron (PT 6000, Kinematica) at 14,000 rpm for 20 s. The homogenate was centrifuged at 48,000×g for 30 min at 4° C. Subsequently, the supernatant was removed and discarded, and the pellet resuspended in 20 ml HEPES-NaOH (20 mM, pH 7.4) containing 0.1 mM EDTA using the Polytron (20 s at 14,000 rpm). This procedure was repeated and the final pellet resuspended in HEPES-NaOH containing 0.1 mM EDTA and homogenized using the Polytron. Typically, aliquots of 2 ml membrane portions were stored at −80° C. With each new membrane batch the dissociation constant (Kd) was determined via a saturation curve.
Nonspecific binding was defined as the amount of ^3-[H]-(S)-4-[(ethyl-phenyl-amino)-methyl]-4,5-dihydro-oxazol-2-ylamine bound in the presence of 10 μM unlabeled ligand. All compounds were tested at a broad range of concentrations (10 pM to 10 μM) in duplicates. […] The 96 deep well plates were incubated for 1 hr at 4° C. Incubations were terminated by rapid filtration through Unifilter-96 plates (Packard Instrument Company) and glass filters GF/C (Perkin Elmer) presoaked for 1 hr in polyethylenimine (0.3%) and washed 3 times with 1 ml of cold binding buffer. After addition of 45 μl of Microscint 40 (PerkinElmer) the Unifilter-96 plate was sealed and after 1 hr the ratioactivity counted using a TopCount Microplate Scintillation Counter (Packard Instrument Company).

Chain of mouse TAAR1 (Q923Y8 whole entry): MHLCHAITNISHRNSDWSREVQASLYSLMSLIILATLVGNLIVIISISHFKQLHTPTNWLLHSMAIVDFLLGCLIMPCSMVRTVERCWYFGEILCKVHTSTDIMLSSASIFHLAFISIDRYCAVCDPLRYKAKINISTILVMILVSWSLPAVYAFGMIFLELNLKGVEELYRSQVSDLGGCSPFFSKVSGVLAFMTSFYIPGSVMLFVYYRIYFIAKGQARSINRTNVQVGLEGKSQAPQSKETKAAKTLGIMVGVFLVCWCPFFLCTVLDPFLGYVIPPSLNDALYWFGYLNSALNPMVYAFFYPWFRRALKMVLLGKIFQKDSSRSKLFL

SMILES | Ki (mouse TAAR1) [µM] | Ki (rat TAAR1) [µM]
O=C(Nc1ccc([C@@H]2CNCCO2)cc1)c1cc(-c2cccc(Cl)c2)n[nH]1 [Example 15, (R)-3-(3-chlorophenyl)-N-(4-(morpholin-2-yl)phenyl)-1H-pyrazole-5-carboxamide hydrochloride] | 0.0006 | 0.0004
N#Cc1cccc(-c2cc(C(=O)Nc3ccc([C@H]4CNCCO4)cc3)[nH]n2)c1F [Example 43, (S)-3-(3-Cyano-2-fluorophenyl)-N-(4-(morpholin-2-yl)phenyl)-1H-pyrazole-5-carboxamide hydrochloride] | 0.0016 | 0.011
COc1ccc(-c2cc(C(=O)Nc3ccc([C@H]4CNCCO4)cc3)[nH]n2)cc1OC [Example 11, (S)-3-(3,4-dimethoxyphenyl)-N-(4-(morpholin-2-yl)phenyl)-1H-pyrazole-5-carboxamide hydrochloride] | 0.0026 | 0.0127
O=C(Nc1ccc([C@H]2CNCCO2)cc1)c1ccn(-c2cncc(C(F)(F)F)n2)n1 [Example 52, (S)—N-(4-(Morpholin-2-yl)phenyl)-1-(6-(trifluoromethyl)pyrazin-2-yl)-1H-pyrazole-3-carboxamide hydrochloride] | 0.0084 | 0.0074
O=C(Nc1ccc([C@@H]2CNCCO2)cc1)c1ccn(-c2ccc(OC(F)F)cc2)n1 [Example 46, (R)-1-(4-(Difluoromethoxy)phenyl)-N-(4-(morpholin-2-yl)phenyl)-1H-pyrazole-3-carboxamide hydrochloride] | 0.004 | 0.0006
COc1ccc(-c2cc(C(=O)Nc3ccc([C@H]4CNCCO4)cc3)[nH]n2)cc1 [Example 7, (S)-3-(4-methoxyphenyl)-N-(4-(morpholin-2-yl)phenyl)-1H-pyrazole-5-carboxamide hydrochloride] | 0.0012 | 0.0049
COc1ccccc1-c1cc(C(=O)Nc2ccc([C@H]3CNCCO3)cc2)[nH]n1 [Example 9, (S)-3-(2-methoxyphenyl)-N-(4-(morpholin-2-yl)phenyl)-1H-pyrazole-5-carboxamide hydrochloride] | 0.0014 | 0.014
O=C(Nc1ccc([C@@H]2CNCCO2)cc1)c1ccn(-c2ccc(C(F)(F)F)cn2)n1 [Example 35, (R)—N-(4-(Morpholin-2-yl)phenyl)-1-(5-(trifluoromethyl)pyridin-2-yl)-1H-pyrazole-3-carboxamide hydrochloride] | 0.0022 | 0.0006
Cn1nc(C(=O)Nc2ccc([C@H]3CNCCO3)cc2)cc1-c1ccccc1 [Example 18, (S)-1-methyl-N-(4-(morpholin-2-yl)phenyl)-5-phenyl-1H-pyrazole-3-carboxamide hydrochloride] | 0.0017 | 0.0254
O=C(Nc1ccc([C@H]2CNCCO2)cc1)c1ccn(-c2ccc(C(F)(F)F)cn2)n1 [Example 33, (S)—N-(4-(Morpholin-2-yl)phenyl)-1-(5-(trifluoromethyl)pyridin-2-yl)-1H-pyrazole-3-carboxamide hydrochloride] | 0.0028 | 0.0016
N#Cc1ccc(-n2ccc(C(=O)Nc3ccc([C@H]4CNCCO4)cc3)n2)cc1 [Example 34, (S)-1-(4-Cyanophenyl)-N-(4-(morpholin-2-yl)phenyl)-1H-pyrazole-3-carboxamide hydrochloride] | 0.0037 | 0.0092
O=C(Nc1ccc([C@H]2CNCCO2)cc1)c1ccn(-c2ncc(C(F)(F)F)cn2)n1 [Example 47, (S)—N-(4-(Morpholin-2-yl)phenyl)-1-(5-(trifluoromethyl)pyrimidin-2-yl)-1H-pyrazole-3-carboxamide hydrochloride] | 0.0198 | 0.0196
Cn1nc(-c2ccccc2)cc1C(=O)Nc1ccc([C@@H]2CNCCO2)cc1 [Example 19, (R)-1-methyl-N-(4-(morpholin-2-yl)phenyl)-3-phenyl-1H-pyrazole-5-carboxamide hydrochloride] | 0.0079 | 0.0028

The next lines start with the values.

Ki (mouse TAAR1) [µM] | Ki (rat TAAR1) [µM] | SMILES
0.0021 | 0.0135 | Cc1c(C(=O)Nc2ccc([C@H]3CNCCO3)cc2)n[nH]c1-c1cccc(C#N)c1 [Example 27, (S)-5-(3-cyanophenyl)-4-methyl-N-(4-(morpholin-2-yl)phenyl)-1H-pyrazole-3-carboxamide hydrochloride]
0.0021 | 0.0042 | N#Cc1cccc(-c2cc(C(=O)Nc3ccc(C4CCNC4)cc3)[nH]n2)c1 (racemic) [Example 38, (rac) 3-(3-Cyanophenyl)-N-(4-(pyrrolidin-3-yl)phenyl)-1H-pyrazole-5-carboxamide hydrochloride]
0.0025 | 0.0016 | CCn1nc(C(=O)Nc2ccc([C@H]3CNCCO3)cc2)cc1-c1cccc(OC(F)F)c1 [Example 41, (S)-5-(3-(Difluoromethoxy)phenyl)-1-ethyl-N-(4-(morpholin-2-yl)phenyl)-1H-pyrazole-3-carboxamide hydrochloride]
0.0022 | 0.0074 | N#Cc1cccc(-c2cc(C(=O)Nc3ccc([C@H]4CNCCO4)cc3)n[nH]2)c1 [Example 20, (S)-5-(3-cyanophenyl)-N-(4-(morpholin-2-yl)phenyl)-1H-pyrazole-3-carboxamide hydrochloride]
0.0007 | 0.0011 | O=C(Nc1ccc([C@H]2CNCCO2)cc1)c1ccn(-c2ccc(Cl)cn2)n1 [Example 32, (S)-1-(5-Chloropyridin-2-yl)-N-(4-(morpholin-2-yl)phenyl)-1H-pyrazole-3-carboxamide hydrochloride]
0.0663 | 0.0262 | Cn1nc(-c2cccc(OC(F)F)c2)cc1C(=O)Nc1ccc([C@H]2CNCCO2)cc1 [Example 44, (S)-3-(3-(Difluoromethoxy)phenyl)-1-methyl-N-(4-(morpholin-2-yl)phenyl)-1H-pyrazole-5-carboxamide hydrochloride]
0.0023 | 0.0022 | Cn1nc(-c2ccc(F)cc2)cc1C(=O)Nc1ccc(C2CNCCO2)cc1 (stereo in doubt) [Example 22, (S)-3-(4-fluorophenyl)-1-methyl-N-(4-(morpholin-2-yl)phenyl)-1H-pyrazole-5-carboxamide hydrochloride]
